Results from patent publication US5786371A, “Pyridine and pyridazine derivatives, processes for the production thereof and pharmaceutical agents containing these compounds” (Boehringer Mannheim GmbH, priority 1995, dated 1998).
Read-outs that look alike come from different tables or passages of the source.

Molecular target: GpIIb/IIIa receptor (Homo sapiens, UniProt P05106+P08514)
Test: GpIIb/IIIa-Fibrinogen-Elisa (inhibition of fibrinogen-GpIIb/IIIa interaction)
Type: binding
Conditions: 1 hour incubation, optical density at 405 nm
Experimental: Microtitre plates are coated overnight with 2 μg/ml isolated activated GpIIb/IIIa receptor. After removing the unbound receptor by washing several times, the surface of the plates is blocked with 1% casein and washed again. The test substance is added in the required concentrations and the plates are incubated for 10 minutes while shaking. The natural ligand of the gpIIb/IIIa receptor, fibrinogen, is added. After 1 hour of incubation the unbound fibrinogen is removed by washing several times and the bound fibrinogen is determined by a peroxidase-conjugated anti-fibrinogen monoclonal antibody by measuring the optical density at 405 nm in an ELISA instrument. Inhibition of a fibrinogen-GpIIb/IIIa interaction results in a low optical density. An IC50 is calculated based on a concentration-effect curve.
The GpIIb/IIIa-Fibrinogen-Elisa is a modification of assays described in the following literature:
Nachman, R. L. & Leung, L. L. K. (1982): Complex formation of platelet membrane glycoproteins IIb and IIIa with fibrinogen. J. Clin. Invest. 69:263-269. Wright, P. S. et al. (1993): An echistatin C-terminal peptide activated GpIIbIIIa binding to fibrinogen, fibronectin, vitronectin and collagen type I and type IV. Biochem. J. 293:263-267.

[1] = isolated activated GpIIb/IIIa receptor on microtitre plates, read-out: IC50

Sequence of GpIIb/IIIa receptor (P08514 32-887 limits assumed): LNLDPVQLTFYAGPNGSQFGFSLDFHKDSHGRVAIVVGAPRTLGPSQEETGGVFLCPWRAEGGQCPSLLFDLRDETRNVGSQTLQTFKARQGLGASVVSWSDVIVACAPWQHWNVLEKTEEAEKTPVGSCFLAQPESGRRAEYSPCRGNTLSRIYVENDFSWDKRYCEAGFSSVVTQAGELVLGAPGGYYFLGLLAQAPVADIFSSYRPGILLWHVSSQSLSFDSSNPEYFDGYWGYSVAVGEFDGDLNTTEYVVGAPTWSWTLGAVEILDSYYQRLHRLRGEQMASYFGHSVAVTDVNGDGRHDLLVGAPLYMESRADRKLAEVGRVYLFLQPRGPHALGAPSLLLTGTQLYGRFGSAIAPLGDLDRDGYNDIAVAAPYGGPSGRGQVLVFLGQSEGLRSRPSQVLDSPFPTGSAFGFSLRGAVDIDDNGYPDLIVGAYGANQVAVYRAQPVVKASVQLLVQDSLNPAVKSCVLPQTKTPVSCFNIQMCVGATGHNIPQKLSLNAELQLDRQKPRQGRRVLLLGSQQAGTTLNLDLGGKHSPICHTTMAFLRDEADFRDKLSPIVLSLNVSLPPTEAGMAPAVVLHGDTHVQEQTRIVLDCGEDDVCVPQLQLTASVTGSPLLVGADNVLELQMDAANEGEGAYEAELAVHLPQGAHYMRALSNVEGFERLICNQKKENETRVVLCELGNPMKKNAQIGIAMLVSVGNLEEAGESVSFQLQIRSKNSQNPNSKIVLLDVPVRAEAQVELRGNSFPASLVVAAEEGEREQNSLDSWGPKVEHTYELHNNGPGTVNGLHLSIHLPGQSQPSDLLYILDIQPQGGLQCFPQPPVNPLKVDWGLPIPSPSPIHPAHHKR
Sequence of GpIIb/IIIa receptor (P08514 891-1039 limits assumed): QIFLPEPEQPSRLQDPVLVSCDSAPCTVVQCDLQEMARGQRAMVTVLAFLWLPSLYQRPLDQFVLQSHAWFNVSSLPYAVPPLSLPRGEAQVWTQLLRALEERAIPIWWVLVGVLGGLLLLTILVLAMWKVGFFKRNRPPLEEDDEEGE
Sequence of GpIIb/IIIa receptor (P05106 27-788): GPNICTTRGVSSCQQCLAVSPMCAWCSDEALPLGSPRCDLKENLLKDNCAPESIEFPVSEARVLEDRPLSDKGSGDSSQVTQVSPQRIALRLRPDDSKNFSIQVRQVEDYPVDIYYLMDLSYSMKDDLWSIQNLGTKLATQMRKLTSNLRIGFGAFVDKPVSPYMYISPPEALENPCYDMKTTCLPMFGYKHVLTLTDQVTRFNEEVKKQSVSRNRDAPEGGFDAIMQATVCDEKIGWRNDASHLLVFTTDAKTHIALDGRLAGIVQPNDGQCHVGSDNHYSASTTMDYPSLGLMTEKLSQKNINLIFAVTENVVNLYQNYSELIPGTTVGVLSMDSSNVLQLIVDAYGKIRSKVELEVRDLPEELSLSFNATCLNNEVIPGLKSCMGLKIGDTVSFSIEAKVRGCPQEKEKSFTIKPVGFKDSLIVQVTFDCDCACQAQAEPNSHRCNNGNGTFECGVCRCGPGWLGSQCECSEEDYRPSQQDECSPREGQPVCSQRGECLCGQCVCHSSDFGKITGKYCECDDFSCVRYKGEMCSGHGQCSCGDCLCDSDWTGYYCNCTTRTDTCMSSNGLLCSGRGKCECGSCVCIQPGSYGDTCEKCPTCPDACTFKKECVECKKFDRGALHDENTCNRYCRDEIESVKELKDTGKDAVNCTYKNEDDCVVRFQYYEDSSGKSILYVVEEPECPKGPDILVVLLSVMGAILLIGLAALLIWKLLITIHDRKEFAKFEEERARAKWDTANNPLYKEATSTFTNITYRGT

| Compound | IC50 [1] [nM] | IC50 (reference substance, isolated activated GpIIb/IIIa receptor, read-out: IC50 value in the above assay (comparative experiments)) [nM] |
| --- | --- | --- |
| O=C(O)CC1(O)CCC(N2CCC(CCCNc3ccncc3)CC2)CC1 (stereo not shown) [12 (page 35), (1-Hydroxy-4-{4-[3-(pyridin-4-ylamino)-propyl]-piperidin-1-yl}-cyclohexyl)-acetic acid] | 200 | – |
| O=C(O)CC1(O)CCC(N2CCN(c3ccncc3)CC2)CC1 (stereo not drawn) [cis-1-hydroxy-4-[4-(4-pyridyl)-piperazin-1-yl]-acetic acid, reference compound] | – | 2500 |
| (4-{3-[(Pyridin-4-ylamino)-propyl]-piperidin-1-yl}-cyclohexyl)-acetic acid [62 (page 40)] | 300 | – |
| O=C(O)CC1(O)CCC(N2CCC(Nc3ccncc3)CC2)CC1 (stereo not shown) [Example 5] | 140 | – |
